Where a name gives a salt, the structure may show the parent alone. Blank lines part the entries; values can stand above or below the molecule they belong to.
How the values were obtained:
Type in all cases: physicochemical
[1] = Water content by the Karl Fischer method
Description: The water content is determined according to the Karl Fischer method.

[2] = Moisture sorption isotherm / water content at defined relative humidity, 25° C.
Description: The moisture sorption isotherm was recorded with a SPS-11 moisture sorption analyzer (MD Mess-technik, Ulm, D). The measurement cycle was started at 0% relative humidity (RH), increased in 10% steps up to 90% RH and in a 5% step up to 95% RH. The equilibrium condition for each step was set to a constant mass ±0.003% over 49 min. The temperature was 25±0.1° C.

[3] = Stability of the crystal form against relative humidity (polymorphic transformation); settings: for relative humidity above which the form transforms to known Dihydrate H2-1: transformation not reversible, hydrochloride
Description: Infrared spectra (IR) were collected on a MKII Golden Gate™ Single Reflection Diamond ATR (attenuated total reflection) cell with a Bruker Tensor 27 FTIR spectrometer with 4 cm^−1 resolution. To collect a spectrum a spatula tip of a sample was applied to the surface of the diamond in powder form. Then the sample was pressed onto the diamond with a sapphire anvil and the spectrum was recorded. A spectrum of the clean diamond was used as background spectrum. A typical precision of the wavenumber values is in the range of about ±2 cm^−1. Thus, an infrared peak that appears at 1716 cm^−1 can appear between 1714 and 1718 cm^−1 on most infrared spectrometers under standard conditions. A sample was stored at 45-49% relative humidity for 12 hours.

[4] = Thermogravimetric analysis (mass / water loss)
Description: Thermogravimetric analysis was performed with the thermogravimetric system TGA-7 using the Pyris Software for Windows NT (Perkin-Elmer, Norwalk, Conn., USA), 50 μl platinum pans, nitrogen purge gas (sample purge: 20 ml min^−1, balance purge: 40 ml min^−1).

[5] = at 40% relative humidity at 25° C.

- water content (Karl Fischer apparatus) ([1]; crystalline form as obtained in example 1): 1.2 % w/w
- water content ([2]; at about 50% relative humidity at 25° C., reversible): about 1.5%
- fate of the water when lowering the relative humidity ([2]; relative humidity at 25° C. lowered to about 0.5%, reversible on exposure to about 50% humidity): lost completely
- relative humidity at which the form is stable [3]: below 50 % relative humidity
- relative humidity above which the form transforms to known Dihydrate H2-1 ([3]; listed as Form I-S): Above 50 % relative humidity
SMILES: N#C[C@@H]1C[C@@H]2CC2N1C(=O)[C@@H](N)C12CC3CC(CC(O)(C3)C1)C2 (stereo partly drawn) [form I-S, Saxagliptin hydrochloride]

- water loss based on thermogravimetric analysis ([4]; FIG. 6): not more than 0.5 % w/w
SMILES: N#C[C@@H]1C[C@@H]2CC2N1C(=O)[C@@H](N)C12CC3CC(CC(O)(C3)C1)C2 (stereo partly drawn) [form HT-S, Saxagliptin hydrochloride]

- water content (moisture sorption analysis) ([2]; at 0% relative humidity, process reversible): 12.8%
- water content (moisture sorption analysis) [2, 5]: 13.1%
- water corresponding to the water content [2, 5]: 2.94 mol of water
- water corresponding to the TGA mass loss ([4]; up to 100° C.): 2.86 mol of water
- mass loss by thermogravimetric analysis ([4]; up to 100° C., FIG. 11): about 12.8%
- relative humidity above which the form transforms to known Dihydrate H2-1 [3]: above 40 % relative humidity
SMILES: N#C[C@@H]1C[C@@H]2CC2N1C(=O)[C@@H](N)C12CC3CC(CC(O)(C3)C1)C2 (stereo partly drawn) [form IV-S, Saxagliptin hydrochloride]

- Water (KF) ([1]; after drying in vacuum oven at 50° C. about 10 hours, then about 80° C. for 5 hours): 0.7%
- Water (KF) ([1]; sample stored at 45-49% relative humidity for 12 hours): 1.2%
- change in the crystal form (FTIR) ([3]; after storage at 45-49% relative humidity for 12 hours): No change in the crystal form
SMILES: N#C[C@@H]1C[C@@H]2CC2N1C(=O)[C@@H](N)C12CC3CC(CC(O)(C3)C1)C2 (stereo partly drawn) [form HT-IV S, Saxagliptin hydrochloride]
